Assay results published in US6781000B1, “Alpha-ketoamide inhibitors of 20S proteasome” (CV Theurapeutics, Inc., priority 1998, dated 2004).

Biological target: T1, chymotrypsin-like activity of 20S proteasome (Bos taurus, UniProt Q2TBX6+Q32KL2)
T1 construct: was purified to homogeneity from bovine brain according to published methods; from tissue; host or cells: bovine brain
Assay: 20S proteasome chymotryptic activity inhibition assay (Suc-Leu-Leu-Val-Tyr-AMC cleavage)
Assay type: biochemical
Conditions: 2 μg 20S proteasome from bovine brain, 50 μM fluorogenic substrate, 15 minutes at 37° C., pH7.5
Method: Compounds of this invention prepared according to the method of Example 1 were tested as follows. The 20S catalytic subunit of the proteasome (also known as the multicatalytic proteinase complex) was purified to homogeneity from bovine brain according to published methods (Wilk S. and Orlowski,M 1983, 40 842 J.Neurochem). The chymotryptic activity of the complex is measured by the increase in fluorescence following cleavage of the substrate peptide succinyl-leucine-leucine-valine-tyrosine-7-amino-4methyl coumarin. The standard in vitro assay consists of 2 μg 20S proteasome, 0.1-100 μg/ml proteasome inhibitor in 200 μl 50 mM HEPES, containing 0.1% sodium dodecyl sulphate, pH7.5. The proteolytic reaction is initiated by the addition of 50 μM flourogenic peptide substrate and allowed to progress for 15 minutes at 37° C. The reaction is terminated by the addition of 100 μL of 100 mM acetate buffer, pH4.0. The rate of proteolysis is directly proportional to the amount of liberated aminomethylcoumarin which is measured by fluorescent spectroscopy (EX 370 nm, EM 430 nm).

SMILES	IC50	IC50 for the inhibition of the chymotrypsin-like activity of 20S proteasome
CC(C)C[C@@H](NC(=O)[C@H](Cc1ccc(-c2ccccc2)cc1)NC(=O)C(=O)Cc1c[nH]c2ccccc12)C(=O)N[C@H](C(=O)O)C(C)C [Compound 51]	> 15.7 µM	
CC(C)CC(NC(=O)C(=O)Cc1ccccc1)C(=O)NC(CC(C)C)C(=O)NC(Cc1ccccc1)C(=O)O (centres unmarked) [Compound 13]		>10 µg/mL
CCCCC(NC(=O)C(=O)Cc1c[nH]c2ccccc12)C(=O)NC(CC(C)C)C(=O)NC(C)C(=O)O (centres unmarked) [Compound 69]		>10 µg/mL
CC(C)CC(NC(=O)C(Cc1ccc2ccccc2c1)NC(=O)C(=O)Cc1c[nH]c2ccccc12)C(=O)NC(Cc1ccccc1)C(=O)O (centres unmarked) [Compound 179]		>10 µg/mL
CC(C)CC(NC(=O)C(Cc1ccccc1)NC(=O)C(=O)Cc1c[nH]c2ccccc12)C(=O)NC(CO)C(=O)O (centres unmarked) [Compound 92]		>10 µg/mL
CC(C)CC(NC(=O)C(C)NC(=O)C(=O)Cc1c[nH]c2ccccc12)C(=O)NCC(=O)O (centres unmarked) [Compound 57]		>10 µg/mL
CC(C)CC(NC(=O)C(=O)Cc1c[nH]c2ccccc12)C(=O)NC(CC(C)C)C(=O)NCC(=O)O (centres unmarked) [Compound 85]		>10 µg/mL
CC(C)CC(NC(=O)C(CC(=O)O)NC(=O)C(=O)Cc1c[nH]c2ccccc12)C(=O)NC(C(=O)O)C(C)C (centres unmarked) [Compound 43]		>10 µg/mL
CC(C)CC(NC(=O)C(=O)Cc1c[nH]c2ccccc12)C(=O)NC(CC(C)C)C(=O)NC(Cc1ccc(O)cc1)C(=O)O (centres unmarked) [Compound 88]	> 16.9 µM	
CC(C)CC(NC(=O)CCNC(=O)C(=O)Cc1c[nH]c2ccccc12)C(=O)NC(Cc1ccccc1)C(=O)O (centres unmarked) [Compound 105]		>10 µg/mL
CC(C)CC(NC(=O)C(NC(=O)C(=O)Cc1c[nH]c2ccccc12)C(C)O)C(=O)NC(C(=O)O)C(C)C (centres unmarked) [Compound 41]		>10 µg/mL
CC(C)CC(NC(=O)CNC(=O)C(=O)Cc1c[nH]c2ccccc12)C(=O)NC(Cc1ccc(O)cc1)C(=O)O (centres unmarked) [Compound 82]	> 18.6 µM	
CC(C)CC(NC(=O)C(Cc1ccc(-c2ccccc2)cc1)NC(=O)C(=O)Cc1c[nH]c2ccccc12)C(=O)NC(CCCCN)C(=O)O (centres unmarked) [Compound 193]		>10 µg/mL
CC(C)CC(NC(=O)C(Cc1ccc2ccccc2c1)NC(=O)C(=O)Cc1c[nH]c2ccccc12)C(=O)NC(CC(=O)O)C(=O)O (centres unmarked) [Compound 180]		5 µg/mL
CCC(C)C(NC(=O)C(=O)Cc1c[nH]c2ccccc12)C(=O)NC(CC(C)C)C(=O)NC(C(=O)O)C(C)C (centres unmarked) [Compound 47]		>10 µg/mL
CCCC(NC(=O)C(=O)Cc1c[nH]c2ccccc12)C(=O)NC(CC(C)C)C(=O)NC(CCC(=O)O)C(=O)O (centres unmarked) [Compound 157]		>10 µg/mL
CC(C)CC(NC(=O)CNC(=O)C(=O)Cc1c[nH]c2ccccc12)C(=O)NC(CC(=O)O)C(=O)O (centres unmarked) [Compound 134]		>10 µg/mL
CC(C)CC(NC(=O)C(Cc1ccc(-c2ccccc2)cc1)NC(=O)C(=O)Cc1c[nH]c2ccccc12)C(=O)NC(CO)C(=O)O (centres unmarked) [Compound 103]		>10 µg/mL
CC(C)CC(NC(=O)C(CC(=O)O)NC(=O)OCc1c[nH]c2ccccc12)C(=O)NC(C)C(=O)O (centres unmarked) [Compound 73]		>10 µg/mL
CC(C)CC(NC(=O)C(Cc1ccc(-c2ccccc2)cc1)NC(=O)C(=O)Cc1c[nH]c2ccccc12)C(=O)NC(Cc1ccccc1)C(=O)O (centres unmarked) [Compound 175]		>10 µg/mL
CC(C)CC(NC(=O)CCNC(=O)C(=O)Cc1c[nH]c2ccccc12)C(=O)NC(C)C(=O)O (centres unmarked) [Compound 68]		>10 µg/mL
CCCCC(NC(=O)C(CC(C)C)NC(=O)C(C)NC(=O)C(=O)Cc1c[nH]c2ccccc12)C(=O)O (centres unmarked) [Compound 124]		>10 µg/mL
CC(C)CC(NC(=O)C(=O)Cc1c[nH]c2ccccc12)C(=O)NC(CC(C)C)C(=O)NC(Cc1ccc(O)cc1)C(=O)O (centres unmarked) [Compound 21]		>10 µg/mL
CC(C)C[C@H](NC(=O)[C@@H](CC(C)C)NC(=O)[C@H](CC(C)C)NC(=O)C(=O)Cc1c[nH]c2ccccc12)C(=O)O [Compound 18]	> 18.4 µM	

SMILES	IC50	IC50 for the inhibition of the chymotrypsin-like activity of 20S proteasome
CC(C)CC(NC(=O)C(Cc1ccc(-c2ccccc2)cc1)NC(=O)C(=O)Cc1c[nH]c2ccccc12)C(=O)NC(C)C(=O)O (centres unmarked) [Compound 81]	> 16.4 µM	
CC(C)CC(NC(=O)C(CC(=O)O)NC(=O)C(=O)Cc1c[nH]c2ccccc12)C(=O)NC(CCC(=O)O)C(=O)O (centres unmarked) [Compound 155]		>10 µg/mL
CC(C)C[C@@H](NC(=O)[C@H](Cc1ccccc1)NC(=O)C(=O)Cc1c[nH]c2ccccc12)C(=O)N[C@H](C(=O)O)C(C)C [Compound 40]	> 17.8 µM	
CC(C)CC(NC(=O)CNC(=O)C(=O)Cc1c[nH]c2ccccc12)C(=O)NCC(=O)O (centres unmarked) [Compound 52]		>10 µg/mL
CC(C)C[C@H](NC(=O)[C@@H](CC(C)C)NC(=O)[C@@H](CC(C)C)NC(=O)C(=O)Cc1c[nH]c2ccccc12)C(=O)O [Compound 23]	> 18.4 µM	
CCCC(NC(=O)C(=O)Cc1c[nH]c2ccccc12)C(=O)NC(CC(C)C)C(=O)NC(C(=O)O)C(C)C (centres unmarked) [Compound 199]		>10 µg/mL
CC(C)CC(NC(=O)C(Cc1cccnc1)NC(=O)C(=O)Cc1c[nH]c2ccccc12)C(=O)NCC(=O)O (centres unmarked) [Compound 64]		>10 µg/mL
CC(C)CC(NC(=O)C(Cc1ccccc1)NC(=O)C(=O)Cc1c[nH]c2ccccc12)C(=O)NC(C)C(=O)O (centres unmarked) [Compound 70]		>10 µg/mL
CC(C)C(NC(=O)C(NC(=O)C(NC(=O)C(=O)Cc1c[nH]c2ccccc12)C(C)C)C(C)C)C(=O)O (centres unmarked) [Compound 203]		>10 µg/mL
CC(C)CC(NC(=O)C(Cc1ccc(O)cc1)NC(=O)C(=O)Cc1c[nH]c2ccccc12)C(=O)NC(CC(=O)O)C(=O)O (centres unmarked) [Compound 143]		>10 µg/mL
CC(C)CC(NC(=O)C(Cc1ccc(O)cc1)NC(=O)C(=O)Cc1c[nH]c2ccccc12)C(=O)NC(Cc1ccccc1)C(=O)O (centres unmarked) [Compound 113]		>10 µg/mL
CC(C)CC(NC(=O)C(CC1CCCCC1)NC(=O)C(=O)Cc1c[nH]c2ccccc12)C(=O)NC(C(=O)O)C(C)C (centres unmarked) [Compound 48]		>10 µg/mL
CCC(C)C(NC(=O)C(CC(C)C)NC(=O)C(CC(C)C)NC(=O)C(=O)Cc1c[nH]c2ccccc12)C(=O)O (centres unmarked) [Compound 19]		>10 µg/mL
CC(C)CC(NC(=O)C(Cc1cccnc1)NC(=O)C(=O)Cc1c[nH]c2ccccc12)C(=O)NC(C(=O)O)C(C)C (centres unmarked) [Compound 49]		>10 µg/mL
CCCCC(NC(=O)C(CC(C)C)NC(=O)C(NC(=O)C(=O)Cc1c[nH]c2ccccc12)C(C)C)C(=O)O (centres unmarked) [Compound 126]		>10 µg/mL
CC(C)CC(NC(=O)CCNC(=O)C(=O)Cc1c[nH]c2ccccc12)C(=O)NCC(=O)O (centres unmarked) [Compound 53]	> 22.5 µM	
CC(C)CC(NC(=O)C(NC(=O)C(=O)Cc1c[nH]c2ccccc12)C(C)C)C(=O)NC(CCC(=O)O)C(=O)O (centres unmarked) [Compound 156]		>10 µg/mL
CCCCC(NC(=O)C(CC(C)C)NC(=O)C(Cc1ccc(-c2ccccc2)cc1)NC(=O)C(=O)Cc1c[nH]c2ccccc12)C(=O)O (centres unmarked) [Compound 174]		5 µg/mL
CC(C)CC(NC(=O)C(CC(C)C)NC(=O)C(CC(C)C)NC(=O)C(=O)Cc1c[nH]c2ccccc12)C(=O)O (centres unmarked) [Compound 28]		>10 µg/mL
CC(C)CC(NC(=O)C(Cc1ccc(O)cc1)NC(=O)C(=O)Cc1c[nH]c2ccccc12)C(=O)NC(C)C(=O)O (centres unmarked) [Compound 76]		>10 µg/mL
CC(C)C[C@H](NC(=O)C(=O)Cc1c[nH]c2ccccc12)C(=O)N[C@H](CC(C)C)C(=O)N[C@H](C(=O)O)C(C)C [Compound 17]	> 18.9 µM	
CC(C)C(NC(=O)C(NC(=O)C(Cc1ccc(O)cc1)NC(=O)C(=O)Cc1c[nH]c2ccccc12)C(C)C)C(=O)O (centres unmarked) [Compound 202]		>10 µg/mL
CCC(C)C(NC(=O)C(=O)Cc1c[nH]c2ccccc12)C(=O)NC(CC(C)C)C(=O)NC(C)C(=O)O (centres unmarked) [Compound 77]	> 20 µM	
